In publication PMC10212518 (Biochemical Journal, 2023):

Experiments:
[1] = test system: wild-type MDF cells; assay: FACS cell death assay (PI uptake by flow cytometry) after necroptotic stimulus; assay type: cell-based, mouse; settings: for inhibition of TSQ-induced necroptosis (PI uptake, flow cytometry): TSQ 24 h, control comparison at concentrations >1 µM; for inhibition of TSZ-induced necroptosis (PI uptake, flow cytometry): TSZ 24 h
Experimental: In the first protocol, WT MDF cells were seeded at 1.0 × 10^5 cells per well in 24-well plates and allowed to settle for 4 h at 37°C 10% CO2. […] After 24 h, cells were harvested, stained with 1 µg/ml propidium iodide (PI; Sigma–Aldrich) and PI positive cells were quantified by flow cytometry on a BD FACSCalibur instrument. In the second protocol, WT MDF cells were seeded at 5.0 × 10^4 cells in 500 µl per well in 24-well plates (Falcon, cat #353047) and allowed to settle for 24 h at 37°C 10% CO2. […] For all compounds and reagents, 0.5 µl of 1000× stocks were used. Cells were harvested, stained with 2 µg/ml propidium iodide (PI; Sigma–Aldrich) and PI positive cells were quantified by flow cytometry on a BD FACSCalibur instrument.

[2] = test system: RIPK3 phosphorylation in MDF cells; assay: Cellular phosphorylation assay, Western blot of phospho-RIPK3; assay type: cell-based, mouse; settings: 10 µM, 2 h pre-treatment; TSI 2 h; wild-type MDF cells
Experimental: (§1) WT, Ripk1^−/−Mlkl^−/− and Ripk3^−/− MDF cell lines were seeded at 3.0 × 10^5 cells in 1 ml per well in 12-well plates (Corning, cat #3512) and allowed to settle for 24 h at 37°C 10% CO2. WT cells were treated with DMSO alone or compounds (1 µM or 10 µM), as specified, for 2 h. Ripk1^−/−Mlkl^−/− and Ripk3^−/− cells were left untreated. Cells were stimulated with TSI to induce phosphorylation of RIPK1 and RIPK3, or left unstimulated, for 2 h. For all compounds and reagents, 1 µl of 1000× stocks were used. Cells were harvested, washed with 500 µl DPBS (Gibco) and lysed in 25 µl of ice-cold RIPA buffer (25 mM Tris–HCl pH 7.5, 150 mM NaCl, 1% v/v Nonidet P-40, 1% w/v Na Deoxycholate, 0.1% w/v SDS) containing cOmplete EDTA-free Protease Inhibitor Cocktail (Roche), PhosSTOP Phosphatase Inhibitor Cocktail (Roche) and benzonase nuclease (Sigma–Aldrich) for 30 min on ice. Whole cell lysates were stored at −80°C until protein quantification, SDS–PAGE and Western blots were performed. Briefly, whole cell lysates were thawed on ice then quantified using the BCA Protein Assay with bicinchoninic acid solution (Sigma–Aldrich) and copper sulfate solution (Sigma–Aldrich). NuPAGE LDS Sample Buffer (Invitrogen) containing TCEP (Sigma–Aldrich) was added to the whole cell lysates to obtain 20 µg protein in 20 µl total volume per sample. Samples were heated at 95°C for 10 minutes and 20 µl of each sample was run on NuPAGE 4–12% Bis-Tris 1.0 mm × 12-well Mini Gels (Invitrogen) using NuPAGE MES SDS Running Buffer (Invitrogen) along with the Precision Plus Kaleidoscope Prestained Protein Standard (Bio-Rad). Western blots were performed according to the Western Blotting General Procedure above.

[3] = target: T1, endogenous mouse RIPK3 in MDF cells (Mus musculus, UniProt Q9QZL0); assay: Cellular Thermal Shift Assay (CETSA); assay type: binding; settings: 20 µM
T1 construct: endogenous in cells; host or cells: wild-type mouse dermal fibroblasts (MDF)
T1 sequence (Q9QZL0 whole entry): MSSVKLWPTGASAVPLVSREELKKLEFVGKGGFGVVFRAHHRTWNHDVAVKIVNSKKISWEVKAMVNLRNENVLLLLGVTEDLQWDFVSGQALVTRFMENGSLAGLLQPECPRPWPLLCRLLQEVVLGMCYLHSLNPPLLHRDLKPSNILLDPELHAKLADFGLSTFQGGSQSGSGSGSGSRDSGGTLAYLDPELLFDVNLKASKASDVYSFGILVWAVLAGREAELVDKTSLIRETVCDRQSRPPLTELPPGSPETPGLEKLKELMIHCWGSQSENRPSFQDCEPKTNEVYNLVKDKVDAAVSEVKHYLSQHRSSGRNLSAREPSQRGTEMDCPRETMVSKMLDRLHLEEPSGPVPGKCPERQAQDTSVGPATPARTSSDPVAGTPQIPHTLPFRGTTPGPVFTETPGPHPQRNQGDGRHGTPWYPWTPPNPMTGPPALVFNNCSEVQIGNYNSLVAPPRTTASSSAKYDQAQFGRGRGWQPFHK
Experimental: (§2) CETSA was performed as previously described. Briefly, Mlkl^−/− MDF cells were treated with doxycycline (20 ng/ml) for 4 h to induce expression of the MLKL Q343A mutant and then seeded to obtain 1.5 × 10^6 cells per temperature point. WT MDF or U937 cells were seeded to obtain 1.5 × 10^6 cells per temperature point. Cells were treated with DMSO or compounds (20 µM), as specified, for 1 h at 37°C 10% CO2. Cells were spun down, washed with 5 ml DPBS (Gibco), resuspended in DPBS containing cOmplete EDTA-free Protease Inhibitor Cocktail (Roche) and aliquoted into 100 µl samples per temperature point in PCR tubes. Live cell suspensions were heated across a temperature gradient (below) for 3 min in a T100 Thermal Cycler (Bio-Rad), cooled at room temperature for 3 min, snap frozen in liquid N2 and stored at −80°C overnight.
(§3) Samples were freeze-thawed once to lyse the cells. Soluble protein was separated from precipitated protein via centrifugation at 17 000×g for 30 min at 4°C. Soluble protein fractions were resolved by SDS–PAGE and analysed by Western blot. Briefly, 10 µl of each soluble protein sample was added to 10 µl of NuPAGE LDS Sample Buffer (Invitrogen) containing TCEP (Sigma–Aldrich). Samples were heated at 95°C for 10 min and then 15 µl of each sample was run on a gel along with the Precision Plus Kaleidoscope Prestained Protein Standard (Bio-Rad), using either NuPAGE 4–12% Bis-Tris 1.0 mm × 20-well Midi Gels (Invitrogen) with NuPAGE MES SDS Running Buffer (Invitrogen), or 4–15% Criterion TGX Stain-Free 26 well 15 µl Protein Gels (Bio-Rad) with Tris/Glycine Buffer (Bio-Rad). Western blots were performed according to the Western Blotting General Procedure above.

[4] = test system: RIPK1 phosphorylation in MDF cells; assay: Cellular phosphorylation assay, Western blot of phospho-RIPK1; assay type: cell-based, mouse; settings: 10 µM, 2 h pre-treatment; TSI 2 h; wild-type MDF cells
Experimental: as §1

[5] = target: T2, endogenous mouse RIPK1 in MDF cells (Mus musculus, UniProt Q60855); assay: Cellular Thermal Shift Assay (CETSA); assay type: binding; settings: 20 µM
T2 construct: endogenous in cells; host or cells: wild-type mouse dermal fibroblasts (MDF)
T2 sequence (Q60855 1-656): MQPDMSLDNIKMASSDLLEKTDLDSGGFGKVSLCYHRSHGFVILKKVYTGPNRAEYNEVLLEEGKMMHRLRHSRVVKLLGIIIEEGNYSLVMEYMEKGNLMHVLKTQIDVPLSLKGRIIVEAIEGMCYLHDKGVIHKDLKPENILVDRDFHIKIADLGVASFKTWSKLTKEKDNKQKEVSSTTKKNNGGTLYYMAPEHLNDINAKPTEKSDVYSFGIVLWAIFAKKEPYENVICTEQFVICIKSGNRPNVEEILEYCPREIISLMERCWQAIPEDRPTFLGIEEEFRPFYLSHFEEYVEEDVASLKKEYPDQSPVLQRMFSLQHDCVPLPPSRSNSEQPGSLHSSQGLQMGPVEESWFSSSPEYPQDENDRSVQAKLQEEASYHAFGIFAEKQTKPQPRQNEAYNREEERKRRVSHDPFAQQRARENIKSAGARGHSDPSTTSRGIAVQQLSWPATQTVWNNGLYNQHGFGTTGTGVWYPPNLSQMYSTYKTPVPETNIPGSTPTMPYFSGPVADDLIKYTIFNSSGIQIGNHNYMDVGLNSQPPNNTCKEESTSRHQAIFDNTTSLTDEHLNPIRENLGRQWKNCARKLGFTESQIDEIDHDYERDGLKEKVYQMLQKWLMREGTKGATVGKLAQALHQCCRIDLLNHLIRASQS
Experimental: as §2, §3

| effect on thermal stability of endogenous mouse RIPK1 (CETSA) [5] | SMILES | inhibition of TSQ-induced necroptosis (PI uptake, flow cytometry) [1] | inhibition of TSZ-induced necroptosis (PI uptake, flow cytometry) [1] | effect on RIPK3 phosphorylation (phospho-RIPK3 signal, Western blot) [2] | effect on thermal stability of endogenous mouse RIPK3 (CETSA) [3] | effect on RIPK1 phosphorylation (phospho-RIPK1 signal, Western blot) [4] |
| --- | --- | --- | --- | --- | --- | --- |
|  | Cc1cc(-c2cnc(N)c3c(-c4ccc5scnc5c4)csc23)n(C)n1 [GSK′843] | protection was comparable | more potent protection with the control inhibitors compared with ABT-869 |  |  |  |
|  | CC(C)S(=O)(=O)c1ccc2nccc(Nc3ccc4scnc4c3)c2c1 [GSK′872] | protection was comparable | more potent protection with the control inhibitors compared with ABT-869 | almost completely inhibited | had no effect on RIPK3 stability |  |
| increased the thermal stability | CN1C(=O)NC(Cc2c[nH]c3c(Cl)cccc23)C1=O (centres unmarked) [Nec-1s] |  |  |  |  | almost completely ablated RIPK1 phosphorylation |
